Earlier results in patent publication US9114169B2, “Sweetening and healthy compositions and methods associated therewith” (priority 2013, dated 2015).

Tests used:
[1] = compared with resveratrol
[2] = compared with resveratrol; remark: listed apart in the source
[3] = fold greater than resveratrol
[4] = fold longer than resveratrol

COc1cc(/C=C/c2ccc(O)cc2)cc(OC)c1 [Pterostilbene, pterostilbene]
absorption relative to resveratrol [1]: greater absorption | metabolic stability relative to resveratrol [2]: greater | cellular uptake relative to resveratrol [3]: 2-4 times | half-life in the human body relative to resveratrol [4]: seven
